In the NIST ThermoML archive (doi:10.1016/j.jct.2017.03.022):

How the values were obtained:
[1] = xn = mol fraction of the nth substance listed; details: 101 kPa, Liquid; for speed of sound: Frequency=3 MHz, Single path-length method; for mass density: Vibrating tube method
[2] = 101 kPa, Liquid, Vibrating tube method

CC(O)CO (stereo not given) [1,2-propanediol] + O=C1CCCN1
[1], x2 = 0
Details	mass density [kg/m3]	speed of sound [m/s]
303.15 K	1028.94	1496.6
308.15 K	1025.2	1482.6
313.15 K	1021.43	1468.5
318.15 K	1017.63	1454.3
323.15 K	1013.79	1440.1

O=C1CCCN1 [2-pyrrolidinone] + OCCCO
[1], x1 = 1
Details	mass density [kg/m3]	speed of sound [m/s]
303.15 K	1103.07	1617.7
308.15 K	1098.99	1601.3
313.15 K	1094.9	1585.4
318.15 K	1090.82	1570.4
323.15 K	1086.75	1553.5

OCCCO [propan-1,3-diol]
[2]
Details	mass density [kg/m3]
303.15 K	1046.56
308.15 K	1043.43
313.15 K	1040.28
318.15 K	1037.11
323.15 K	1033.92
